From PubChem BioAssay (NCI)
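Protocol summary: plate cells (96-well), add compound at 5 concentrations, incubate 48 h, interpolate endpoints linearly. The concentration for full growth arrest is given as TGI.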 Where a SMILES comes first, the peptide text is derived from it. The star is where a group is joined. Cbz = O=C(OCc1ccccc1)*

Experiments:
Test in all cases: NCI anticancer screen, dose series, 48 h
SK-MEL-2 melanoma = tested on: SK-MEL-2 melanoma
SK-OV-3 ovarian = tested on: SK-OV-3 ovarian
HL-60(TB) leukemia = tested on: HL-60(TB) leukemia
SR leukemia = tested on: SR leukemia
OVCAR-3 ovarian = tested on: OVCAR-3 ovarian
MDA-N = tested on: MDA-N
EKVX NSCLC = tested on: EKVX NSCLC
OVCAR-5 ovarian = tested on: OVCAR-5 ovarian
SF-539 CNS = tested on: SF-539 CNS
A498 renal = tested on: A498 renal
MOLT-4 leukemia = tested on: MOLT-4 leukemia

Compound	TGI (SK-MEL-2 melanoma) [µM]	TGI (SK-OV-3 ovarian) [µM]	TGI (HL-60(TB) leukemia) [µM]	TGI (SR leukemia) [µM]	TGI (OVCAR-3 ovarian) [µM]	TGI (MDA-N) [µM]	TGI (EKVX NSCLC) [µM]	TGI (OVCAR-5 ovarian) [µM]	TGI (SF-539 CNS) [µM]	TGI (A498 renal) [µM]	TGI (MOLT-4 leukemia) [µM]
O=C1/C(=C/c2ccccc2S)N=C(c2ccccc2)N1c1nc2c(Cl)cc(Cl)cc2s1	52.9	66	42.6	34	40.2	36.9	36	54.8	40.8	40.7	30.2
CC#CCOC(=O)c1ccccc1OC(C)=O	> 100	> 100	> 100	> 100		> 100	> 100	> 100	> 100	> 100	> 100
COC(=O)C(Cc1c[nH]c2ccccc12)NP(=O)(O)OCC1OC(n2cc(I)c(=O)[nH]c2=O)CC1O (stereo not given)		> 100	> 100	> 100	> 100	> 100	> 100	> 100	> 100	> 100	> 100
O=[N+]([O-])/C(C(Cl)=C(Cl)Cl)=C(/Cl)Sc1ccccc1	27.4	34.3	0.318	2.38	3.61	3.78	33.4	3.9	3.78	4.19	1.23
CN1CCN(C(=S)N2CCN(C)CC2)CC1	> 100	> 100	> 100	0.983	> 100	> 100	> 100	> 100	45.3	> 100	> 100
O=C(O)CCC(NC(=O)OCc1ccccc1)C(=O)NC(Cc1cnc[nH]1)C(=O)O (stereo not drawn) (Cbz-Glu-His-OH; configuration not given here)	> 100	> 100	> 100	> 100	> 100	> 100	> 100	> 100	> 100	> 100	> 100
Clc1ccc(C2C3COc4ccccc4C3=NN2c2ccccc2)cc1 (stereo not given)	> 100	> 100	> 68.2	1.78	> 100	> 67.4	> 100	> 100	> 100	> 100	47
COc1cc2c(C)cc(O)cc2c2cc(O)c(C)cc12	31.3	23.8	13	6.18	22.3	20	22.6	24.3	19.1	21.3	25.1
O=C(O)[C@@H]1CCS(=O)(=O)N1	> 100	> 100	> 100	> 100	> 100	> 100	> 100	> 100	> 100	> 100	> 100
Cc1ccnc2[nH]c3ccccc3c(=O)c12	68.7	> 100	61.3	> 100	72.1	47	71.7	> 100	46.6	> 100	55.1
COC(=O)C1=C(O)C(C(=O)OC)[C@]2(O)[C@H](C(=O)OC)[C@H]1C[C@@H](c1ccc(C(F)(F)F)cc1)[C@H]2C(=O)OC (stereo not given in full)	15.1	> 100	30.2	> 100	54.1	17.2	32.4	15	4	13.9	> 100
Nc1nc(N)c2c3c(cnc2n1)CC(c1ccccc1)CC3 (stereo not given)	> 100	63	24.8	66.1	> 100	> 100	> 100	> 100	> 100	> 100	> 100
CC(=O)c1[nH]c(NCc2ccccc2)c(C(=S)Nc2ccccc2)c1N	1.07	> 100	35.3	> 100	97.9	39.1	> 100	55.1	32.1	53.7	> 100
COc1cc(C2c3cc4c(cc3OC3(OC)COC(=O)C23)OCO4)cc(OC)c1OC(C)=O (stereo not given)	> 100	> 100	12.8	> 31.6	> 36.2	2.55	> 100	> 41.4	2.25	97.4	> 100
O=C1CCCC1CN1CCCC1 (stereo not given)	18.5	27.7	3.02	1.16	28.9	26.8	42.8	32.4	36.7	45.1	1.07
CN(CC(=O)O)c1ncc2c(n1)CCCC2	> 100	> 100	> 100	> 100	> 100	> 100	> 100	> 100	> 100	> 100	> 100
O=C(/C=C/c1cc2ccccc2o1)N1CCN(c2ccccn2)CC1	> 100	> 100	> 100	> 100	> 100	> 100	> 100	> 100	> 100	> 100	> 100
